Data taken from patent US20180263985A1, “MODULATORS OF TOLL-LIKE RECEPTORS FOR THE TREATMENT OF HIV” (Gilead Sciences, Inc., priority 2015, published 2018).
Several values for one entry are separate records, joined by “and”; a condition that tells them apart may be missing. Equal values may be shown once.

Columns and labels:
[1] = tested on: PBMC cultures from HIV-1 infected subjects on cART; test: Induced HIV-1 expression in PBMC cultures, HIV-1 RNA in supernatant after 4 days (COBAS TaqMan HIV-1 Test); type: cell-based, human; details: for N with ≥2-Fold-Activation: subjects; for Fold HIV-1 Activation: vs DMSO; for Geometric Mean with ≥2-Fold-Activation / Range with ≥2-Fold-Activation: N = 5
Procedure: In some experiments, IL-15, the TLR8 modulating compound of Example 15 or the combination of IL-15 and Example 15 were used at the indicated concentrations (Table 4). The cultures were maintained in the presence of antivirals (elvitegravir and efavirenz at 100 nM each) to prevent viral spread and amplification in order to measure the quantity of virus produced (latency reversal) by the TLR8 modulating compounds. At the end of the incubation period, cell-free culture supernatants were harvested and HIV-1 RNA levels were quantified by the COBAS® AmpliPrep/COBAS®TaqMan HIV-1 Test, v2.0 (Roche).
In each table, fold-activation is calculated as a ratio of HIV-1 RNA copies per ml of cell culture supernatants from TLR8 agonist treated samples and DMSO treated controls. Geometric mean fold-activation from three independent incubation samples for each condition of each subject's PBMCs. Values in bold indicate ≥2-fold HIV activation.
To assess if the latency reversal induced by TLR8 agonism could further potentiate latency reversal by a separate mechanisms, we treated cells as described above with IL-15, Example 15, or a combination of IL-15 and Example 15 (Table 4).

[2] = tested on: serum cytokines and chemokines; test: Induction of cytokines and chemokines in serum of orally dosed Rhesus macaques (Luminex); type: in vivo
Procedure: The TLR8 modulator of Example 65 was formulated in 2% ethanol, 40% polyethylene glycol 300, and 58% 0.01 N hydrochloric acid. Oral solutions of formulations were prepared by dissolving a sufficient amount of the compound in the 2% ethanol, 40% polyethylene glycol 300, and 58% 0.01 N hydrochloric acid vehicle to arrive at 0.5, 1.5, or 5 mg/ml of Example 65. Rhesus macaques were dosed orally with 1.2 to 2 mls/kg to achieve dose levels of 1, 3, 6, or 10 mg/kg Example 65. Blood samples were collected at 2, 4, 8, 12, 24 and 48 hours postdose (FIG. 5) and allowed to clot under ambient conditions prior to centrifugation to obtain serum. The indicated cytokines and chemokines were quantified in serum with a multiplexed Luminex® assay following the manufacturer's instructions (Life Technologies). […] At 10 and 6 mg/kg, IL-12, IL-1RA and MCP-1 peaked near 10 ng/ml and IL-6 peaked at 1 ng/ml.

[3] = tested on: HIV-specific polyfunctional CD8 T cells; test: Induced HIV-specific polyfunctional CD8+ T cells in PBMC cultures from HIV-1 infected subjects on cART; type: cell-based, human; details: for Median HIV-specific polyfunctional CD8 T cells (% proliferating CD8+ cells double positive for IFN-γ and TNF-α): HIV peptide pool, 5 subjects

IL-15: interleukin-15, used at 1 nM as a separate latency reversal stimulus
Subjects with ≥2-Fold-Activation (%) ([1]; IL-15 1 nM): 66%
Fold HIV-1 Activation, Geometric Mean ([1]; IL-15 1 nM, N = 6): 2.9 fold
N with ≥2-Fold-Activation ([1]; IL-15 1 nM): 4 of 6
Fold HIV-1 Activation ([1]; IL-15 1 nM, one value per subject (IDs 205-210)): 1.6 fold and 2.6 fold and 3.3 fold and 4.4 fold and 6.3 fold and 1.4 fold

CCCC[C@](C)(CNC(C)=O)Nc1nc(N)nc2cc(Cl)cnc12 [Example 65]
Induction of cytokines associated with TLR8 activation (IL-12, IL-6, IL-1RA, MCP-1) in serum ([2]; oral 1, 3, 6, or 10 mg/kg): induced in a dose-dependent manner
IL-1RA peak serum concentration ([2]; oral 10 and 6 mg/kg): ~10 ng/mL
IL-6 peak serum concentration ([2]; oral 10 and 6 mg/kg): 1 ng/mL
IL-12 peak serum concentration ([2]; oral 10 and 6 mg/kg): ~10 ng/mL
MCP-1 peak serum concentration ([2]; oral 10 and 6 mg/kg): ~10 ng/mL
Time of peak serum cytokine concentrations post-dose ([2]; oral dosing): 2 h

CCC[C@@H](CO)Nc1nc(N)nc2cc(F)c(F)cc12 [Example 119, (S)-2-((2-amino-6,7-difluoroquinazolin-4-yl)amino)pentan-1-ol, reference compound]
Subjects with ≥2-Fold-Activation (%) ([1]; 156 nM): (67) %
Geometric Mean with ≥2-Fold-Activation ([1]; 156 nM): 4.2 fold
Range with ≥2-Fold-Activation ([1]; 156 nM): 3.6-4.9 fold
N with ≥2-Fold-Activation ([1]; 156 nM): 2 of 3
Fold HIV-1 Activation ([1]; 156 nM, one value per subject (IDs 151-155)): 3.6 fold and 4.9 fold and 0.4 fold
Subjects with ≥2-Fold-Activation (%) ([1]; 625 nM): (60) %
Geometric Mean with ≥2-Fold-Activation ([1]; 625 nM): 4.1 fold
Range with ≥2-Fold-Activation ([1]; 625 nM): 3.4-4.8 fold
N with ≥2-Fold-Activation ([1]; 625 nM): 3 of 5
Fold HIV-1 Activation ([1]; 625 nM, one value per subject (IDs 151-155)): 3.4 fold and 4.1 fold and 4.8 fold and 0.3 fold and 0.5 fold
Subjects with ≥2-Fold-Activation (%) ([1]; 2,500 nM): (100) %
Geometric Mean with ≥2-Fold-Activation ([1]; 2,500 nM): 3.6 fold
Range with ≥2-Fold-Activation ([1]; 2,500 nM): 2.2-5.2 fold
N with ≥2-Fold-Activation ([1]; 2,500 nM): 5 of 5
Fold HIV-1 Activation ([1]; 2,500 nM, one value per subject (IDs 151-155)): 4.1 fold and 4.2 fold and 3.2 fold and 5.2 fold and 2.2 fold
Geometric Mean with ≥2-Fold-Activation ([1]; 156, 625, or 2500 nM): 4.1 fold
Range with ≥2-Fold-Activation ([1]; 156, 625, or 2500 nM): 2.2-5.2 fold
N with ≥2-Fold-Activation ([1]; 156, 625, or 2500 nM): 5 out of 5 and 5 of 5

CCCCC(C)(CO)Nc1nc(N)nc2cc(F)cnc12 (stereo not drawn) [Example 98]
Patients in whom increases in HIV-specific polyfunctional CD8 T cells were seen ([3]; 100 nM): 4 of 5
Median HIV-specific polyfunctional CD8 T cells (% proliferating CD8+ cells double positive for IFN-γ and TNF-α) ([3]; 100 nM): 0.93%
Patients in whom increases in HIV-specific polyfunctional CD8 T cells were seen ([3]; 1000 nM): 4 of 5
Fold increase of median HIV-specific polyfunctional CD8 T cells ([3]; 1000 nM with HIV specific peptide pool vs vehicle, p<0.05): 7.1 fold
Median HIV-specific polyfunctional CD8 T cells (% proliferating CD8+ cells double positive for IFN-γ and TNF-α) ([3]; 1000 nM): 0.92%
